How the values were obtained:
[1] = Solubility study of calcitriol in each formulation (light microscope); type: physicochemical; conditions: each formulation of Table 3; heated to 50° C., cooled to room temperature; highest concentration tested
Method: To further assess the formulations of calcitriol, a solubility study was conducted to evaluate the amount of calcitriol soluble in each formulation. Calcitriol concentrations from 0.1 to 0.6 μg calcitriol/mg formulation were prepared by heating the formulations to 50° C. followed by addition of the appropriate mass of calcitriol. The formulations were then allowed to cool to room temperature and the presence of undissolved calcitriol was determined by a light microscope with and without polarizing light. For each formulation, calcitriol was soluble at the highest concentration tested, 0.6 μg calcitriol/mg formulation.

[2] = test system: patients with androgen independent prostate cancer; conditions: human, in vivo
Method: Two hundred fifty patients with androgen independent prostate cancer were enrolled in a randomized placebo controlled trial at 48 centers in the United States and Canada.
The same Taxotere® dose of 36 mg/m^2 body surface area was administered to the patients receiving Taxotere® and placebo or Taxotere® in combination with calcitriol.
Hospitalization for dehydration was more common in those patients receiving Taxotere® and placebo.

[3] = test system: patients; conditions: administered doses with cisplatin infusions; cited from earlier work

C=C1/C(=C\C=C2/CCC[C@]3(C)[C@@H]([C@H](C)CCCC(C)(C)O)CC[C@@H]23)C[C@@H](O)C[C@@H]1O [Calcitriol, 1α,25-hydroxyvitamin D3]
Calcitriol soluble in formulation [1]: ≥ 0.6 μg calcitriol/mg formulation | GI disorders versus Taxotere and placebo [2]: fewer GI disorders

NCCCNCCSP(=O)(O)O [WR 2721, S-2-(3-aminopropylamino)ethylphosphorothioic acid]
Emesis, percent of patients [3]: 48 % of patients | Hypotension, percent of patients [3]: 7 % of patients
